This passage reports GI50 results from ChEMBL document CHEMBL1201862, “PubChem BioAssay data set” (2004).

Molecules are shown by their SMILES.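 96-well plates; 48 h exposure; 5 concentrations. Endpoints by linear interpolation between flanking doses. Not reached: highest tested concentration assigned. Here, GI50 denotes the concentration required for 50% inhibition of growth.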 Active and inactive are the calls of the source. Cut-off read from the data, not from the text of the source: active = GI50 up to about 1.1 µM and inactive = higher.

Test systems include DU-145; BT-549; T47D; DLD-1; M19-MEL; XF498; RXF 631; LXFL 529.
Assay in all cases: DTP human tumour cell line panel, 48 h

For the compound `CCOC(=O)C1(CO)CSCCSC1`, the GI50 (as a rule, the concentration that inhibits growth by half) in the assay on DU-145 was > 100 µM (inactive).
In the case of `O=C(O)c1cc([N+](=O)[O-])cc2c(=O)c3cnccc3[nH]c12`, the GI50 with BT-549, in the assay with DU-145 and in the assay with T47D was > 100 µM (inactive) each time.
On to `CSc1nc2c(ncn2C2OC(CO)C(O)C(O)C2O)c(=O)[nH]1` (stereo unspecified), for which the GI50 with DLD-1, with M19-MEL and in the assay with XF498 was > 100 µM (inactive) each time.
Turning to `O=S(=O)(CF)OCCCCOS(=O)(=O)CF`, the GI50 in the assay on M19-MEL, in the assay on RXF 631 and in the assay on LXFL 529 was > 100 µM (inactive) in each case.
On to `CCc1nnc(-c2nsc3ccccc23)s1`, for which the GI50 with LXFL 529 is > 100 µM (inactive).
